In ChEMBL document CHEMBL1145671, “Cactus Alkaloids. LIII. Coryphanthine and O-Methyl-Candicine, Two New Quaternary Alkaloids from Coryphantha greenwoodii” (J Nat Prod, 1983):
Structures can show the parent of a compound that is named as a salt.

Tested on: Artemia
Experiment: (§1) Toxicity against brine shrimp assessed as impaired swimming movements after 24 hrs
Format: organism-based
Conditions: Artemia, 24 h

SMILES | IC50 [µg/mL]
C[N+](C)(C)CC(O)c1ccccc1.[Cl-] (centres undefined) | > 1000
C[N+](C)(C)CCO.[Cl-] [CHOLINE CHLORIDE] | > 1000

Same assay, conditions: artemia, in vivo, 24 h

SMILES | LC50 [µg/mL]
CO[C@H](C[N+](C)(C)C)c1ccccc1.[Cl-] [CORYPHANTHINE CHLORIDE] | 494

Tested on: not listed separately
Experiment: as §1
Format: organism-based, Artemia
Conditions: artemia, in vivo

SMILES | LC50 at 24 h [µg/mL]
CO[C@H](C[N+](C)(C)C)c1ccccc1 | 354
COc1ccc(CC[N+](C)(C)C)cc1 | 425
COC(C[N+](C)(C)C)c1ccccc1 (racemic) | 368
C[N+](C)(C)CCc1ccc(O)cc1 [CANDICINE CHLORIDE] | 923
CN1CCC[C@H]1c1cccnc1 [NICOTINE HYDROCHLORIDE] | 158
O=C1C[C@@H]2OCC=C3CN4CC[C@]56c7ccccc7N1[C@H]5[C@H]2[C@H]3C[C@H]46 [STRYCHNINE SULFATE] | 164
